According to the supplement of paper PMC11208160:

Assay: recombinant UMI read abundance after kanamycin selection (control-corrected) (log10(CPM+1)); higher = more efficient recombination; extreme values may be limits of the assay; sequences stand for … in AGTGCAGAGAAAATCGGCCAGTTTTCTCTGCCTGCAGTCCGCATGCCGTGGGACCCCTTGGGTTCTAACCTGTTGCCTAGATTTATGCAGCGGACTGCCTTTCTCCCAAAGTGATAAACCGG…AGGTTGGTTTCACT; site = the 11-nt donor
Method in brief: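 Values, expressed as log10(CPM+1), derive from recombinant UMI counts converted to CPM, averaged across replicates and scaled by control-derived factors. Plating was with IPTG (0.07 mM) plus kanamycin or unselected, two replicates each. The screen pooled donor and donor-binding-loop pairs for the IS621 bridge recombinase in Escherichia coli.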
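Also: IS621 bridge recombinase in Escherichia coli cells against a fixed T5 target plasmid.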

| Sequence | recombinant UMI read abundance (log10) |
| --- | --- |
| TACAATCCATGGACCGGTTTTCCCGGTAATCCGTATTTGAG (site TACAATCCTCT) | 0.531 |
| TACAGACCATGGACCGGTTTTCCCGGTAATCCGTATTTGTC (site TACAGACCTGA) | 0 |
| TACAGCGCATGGACCGGTTTTCCCGGTAATCCGTATTTGCG (site TACAGCGCTCG) | 0.00572 |
| TACAGGCCATGGACCGGTTTTCCCGGTAATCCGTATTTGCT (site TACAGGCCTAG) | 0.00356 |
| TACCACCCATGGACCGGTTTTCCCGGTAATCCGTATTTGCT (site TACCACCCTAG) | 0.83 |
| TACCCGCCATGGACCGGTTTTCCCGGTAATCCGTATTTGCG (site TACCCGCCTCG) | 0.26 |
| TACCCTTCATGGACCGGTTTTCCCGGTAATCCGTATTTGGT (site TAACCTTCTAC) | 0.00354 |
| TACCCTTCATGGACCGGTTTTCCCGGTAATCCGTATTTGGT (site TACCCTTCTAC) | 0.56 |
| TACCCTTCATGGACCGGTTTTCCCGGTAATCCGTATTTGGT (site TAGCCTTCTAC) | 0.0115 |
| TACCCTTCATGGACCGGTTTTCCCGGTAATCCGTATTTGGT (site TATCCTTCTAC) | 0.00909 |
| TACCTCTCATGGACCGGTTTTCCCGGTAATCCGTATTTGAC (site TACCTCTCTGT) | 0.216 |
| TACCTGACATGGACCGGTTTTCCCGGTAATCCGTATTTGCT (site TACATGACTAG) | 0 |
| TACCTGACATGGACCGGTTTTCCCGGTAATCCGTATTTGCT (site TACCTGACTAG) | 0.461 |
| TACCTGACATGGACCGGTTTTCCCGGTAATCCGTATTTGCT (site TACGTGACTAG) | 0 |
| TACCTGACATGGACCGGTTTTCCCGGTAATCCGTATTTGCT (site TACTTGACTAG) | 0 |
| TACCTTCCATGGACCGGTTTTCCCGGTAATCCGTATTTGGC (site TACCTTCCTGC) | 0 |
| TACGATCCATGGACCGGTTTTCCCGGTAATCCGTATTTGCT (site TACGATCCTAG) | 1.96 |
| TACGGAGCATGGACCGGTTTTCCCGGTAATCCGTATTTGCC (site AGTCTTACTAA) | 0 |
| TACGGCCCATGGACCGGTTTTCCCGGTAATCCGTATTTGTT (site AACGGCCCTAA) | 0.0182 |
| TACGGCCCATGGACCGGTTTTCCCGGTAATCCGTATTTGTT (site CACGGCCCTAA) | 0.00844 |
| TACGGCCCATGGACCGGTTTTCCCGGTAATCCGTATTTGTT (site GACGGCCCTAA) | 0.00736 |
| TACGGCCCATGGACCGGTTTTCCCGGTAATCCGTATTTGTT (site TACGGCCCTAA) | 0.00191 |
| TACGGCGCATGGACCGGTTTTCCCGGTAATCCGTATTTGCC (site TACGGCGCTGG) | 2.01 |

| Sequence | recombinant UMI read abundance (log10) |
| --- | --- |
| TACGTGACATGGACCGGTTTTCCCGGTAATCCGTATTTGAC (site TACGTGACTGT) | 1.74 |
| TACTCCTCATGGACCGGTTTTCCCGGTAATCCGTATTTGGG (site TACTCCTCTCC) | 0.0269 |
| TACTCTCCATGGACCGGTTTTCCCGGTAATCCGTATTTGTG (site TACTCTCCTCA) | 0.011 |
| TACTGCACATGGACCGGTTTTCCCGGTAATCCGTATTTGGG (site TACTGCACTCC) | 0.0129 |
| TACTTAACATGGACCGGTTTTCCCGGTAATCCGTATTTGCT (site TACTTAACTAG) | 0.345 |
| TACTTAACATGGACCGGTTTTCCCGGTAATCCGTATTTGCT (site TACTTCACTAG) | 0.00655 |
| TACTTAACATGGACCGGTTTTCCCGGTAATCCGTATTTGCT (site TACTTGACTAG) | 0.00699 |
| TACTTAACATGGACCGGTTTTCCCGGTAATCCGTATTTGCT (site TACTTTACTAG) | 0 |
| TACTTCACATGGACCGGTTTTCCCGGTAATCCGTATTTGCT (site TACTTAACTAG) | 0.0118 |
| TACTTCACATGGACCGGTTTTCCCGGTAATCCGTATTTGCT (site TACTTCACTAG) | 1.9 |
| TACTTCACATGGACCGGTTTTCCCGGTAATCCGTATTTGCT (site TACTTGACTAG) | 0.0117 |
| TACTTCACATGGACCGGTTTTCCCGGTAATCCGTATTTGCT (site TACTTTACTAG) | 0 |
| TACTTGACATGGACCGGTTTTCCCGGTAATCCGTATTTGGT (site TACTTGACTAA) | 0.109 |
| TACTTGACATGGACCGGTTTTCCCGGTAATCCGTATTTGGT (site TACTTGACTAC) | 0.209 |
| TACTTGACATGGACCGGTTTTCCCGGTAATCCGTATTTGGT (site TACTTGACTAG) | 0 |
| TACTTGACATGGACCGGTTTTCCCGGTAATCCGTATTTGGT (site TACTTGACTAT) | 0.179 |
| TAGAAAACATGGACCGGTTTTCCCGGTAATCCGTATTTGGA (site TAGAAAACTTC) | 0.76 |
| TAGAACACATGGACCGGTTTTCCCGGTAATCCGTATTTGCA (site TAGAAAACTTG) | 0 |
| TAGAACACATGGACCGGTTTTCCCGGTAATCCGTATTTGCA (site TAGAACACTTG) | 2.41 |
| TAGAACACATGGACCGGTTTTCCCGGTAATCCGTATTTGCA (site TAGAAGACTTG) | 0.271 |
| TAGAACACATGGACCGGTTTTCCCGGTAATCCGTATTTGCA (site TAGAATACTTG) | 1.87 |
| TAGAATACATGGACCGGTTTTCCCGGTAATCCGTATTTGAA (site TAGAATACTTA) | 0.0126 |
| TAGAATACATGGACCGGTTTTCCCGGTAATCCGTATTTGAA (site TAGAATACTTC) | 0.0116 |

| Sequence | recombinant UMI read abundance (log10) |
| --- | --- |
| TAGAATACATGGACCGGTTTTCCCGGTAATCCGTATTTGAA (site TAGAATACTTG) | 0 |
| TAGAATACATGGACCGGTTTTCCCGGTAATCCGTATTTGAA (site TAGAATACTTT) | 0.686 |
| TAGAATACATGGACCGGTTTTCCCGGTAATCCGTATTTGCC (site TAGAATACTAG) | 0 |
| TAGAATACATGGACCGGTTTTCCCGGTAATCCGTATTTGCC (site TAGAATACTCG) | 0 |
| TAGAATACATGGACCGGTTTTCCCGGTAATCCGTATTTGCC (site TAGAATACTGG) | 0 |
| TAGAATACATGGACCGGTTTTCCCGGTAATCCGTATTTGCC (site TAGAATACTTG) | 0 |
| TAGAATACATGGACCGGTTTTCCCGGTAATCCGTATTTGCT (site TAGAATACTAG) | 1.3 |
| TAGAATACATGGACCGGTTTTCCCGGTAATCCGTATTTGCT (site TAGAATACTCG) | 0.00353 |
| TAGAATACATGGACCGGTTTTCCCGGTAATCCGTATTTGCT (site TAGAATACTGG) | 0 |
| TAGAATACATGGACCGGTTTTCCCGGTAATCCGTATTTGCT (site TAGAATACTTG) | 0.00456 |
| TAGAATCCATGGACCGGTTTTCCCGGTAATCCGTATTTGCA (site TAGAATACTTG) | 0 |
| TAGAATCCATGGACCGGTTTTCCCGGTAATCCGTATTTGCA (site TAGAATCCTTG) | 1.16 |
| TAGAATCCATGGACCGGTTTTCCCGGTAATCCGTATTTGCA (site TAGAATGCTTG) | 0 |
| TAGAATCCATGGACCGGTTTTCCCGGTAATCCGTATTTGCA (site TAGAATTCTTG) | 0 |
| TAGAATGCATGGACCGGTTTTCCCGGTAATCCGTATTTGCA (site TAGAATACTTG) | 0.258 |
| TAGAATGCATGGACCGGTTTTCCCGGTAATCCGTATTTGCA (site TAGAATCCTTG) | 0.762 |
| TAGAATGCATGGACCGGTTTTCCCGGTAATCCGTATTTGCA (site TAGAATGCTTG) | 2.71 |
| TAGAATGCATGGACCGGTTTTCCCGGTAATCCGTATTTGCA (site TAGAATTCTTG) | 0.905 |
| TAGAATTCATGGACCGGTTTTCCCGGTAATCCGTATTTGCA (site TAGAATACTTG) | 0.907 |
| TAGAATTCATGGACCGGTTTTCCCGGTAATCCGTATTTGCA (site TAGAATCCTTG) | 0 |
| TAGAATTCATGGACCGGTTTTCCCGGTAATCCGTATTTGCA (site TAGAATGCTTG) | 0 |
| TAGAATTCATGGACCGGTTTTCCCGGTAATCCGTATTTGCA (site TAGAATTCTTG) | 1.53 |
